Active and inactive are the calls of the source. No cut-off for these calls is given here.
Legend:
Mus musculus [1] = assay: Antifibrotic activity against MCD-induced C57BL/6J mouse model of liver fibrosis assessed as reduction in collagen III level in liver at 20 to 40 mg/kg, ip administered from week 3 to week 6 by sirius red staining based light microscopic analysis; assay type: functional, organism-based; settings: dose 20-40 mg/kg, time 4.0 weeks
Mus musculus [2] = assay: Antifibrotic activity against MCD-induced C57BL/6J mouse model of liver fibrosis assessed as reduction in number of collagenous fibers in liver at 20 to 40 mg/kg, ip administered from week 3 to week 6 by masson's trichrome staining based light microscopic analysis; assay type: functional, organism-based; settings: dose 20-40 mg/kg, time 4.0 weeks
Mus musculus [3] = assay: Reduction in hepatic steatosis in HFD-induced C57BL/6J mouse model of NAFL assessed as reduction in HFD-induced body weight gain at 20 to 40 mg/kg/day, ip administered from week 7 to week 12; assay type: functional, organism-based; settings: dose 20-40 mg/kg/day, time 6.0 weeks
Mus musculus [4] = assay: Upregulation of Acaa1a gene transcriptional level in HFD-induced C57BL/6J mouse model of NAFL at 20 to 40 mg/kg/day, ip administered from week 7 to week 12 by qRT-PCR analysis; assay type: functional, organism-based; settings: dose 20-40 mg/kg/day, time 6.0 weeks
Mus musculus [5] = assay: Upregulation of Cpt1a gene transcriptional level in HFD-induced C57BL/6J mouse model of NAFL at 20 to 40 mg/kg/day, ip administered from week 7 to week 12 by qRT-PCR analysis; assay type: functional, organism-based; settings: dose 20-40 mg/kg/day, time 6.0 weeks
Mus musculus [6] = assay: Anti-inflammatory activity against MCD-induced C57BL/6J mouse model of nonalcoholic steatohepatitis assessed as downregulation of TNFalpha expression in liver at 20 to 40 mg/kg/day, ip administered from week 3 to week 4 by immunoblotting analysis; assay type: functional, organism-based; settings: dose 20-40 mg/kg/day, time 2.0 weeks
Mus musculus [7] = assay: Reduction in hepatic steatosis in HFD-induced C57BL/6J mouse model of NAFL assessed as reduction in serum LDL level at 20 to 40 mg/kg/day, ip administered from week 7 to week 12; assay type: functional, organism-based; settings: dose 20-40 mg/kg/day, time 6.0 weeks
Mus musculus [8] = assay: Upregulation of Medium-chain specific acyl-CoA dehydrogenase gene transcriptional level in HFD-induced C57BL/6J mouse model of NAFL at 20 to 40 mg/kg/day, ip administered from week 7 to week 12 by qRT-PCR analysis; assay type: functional, organism-based; settings: dose 20-40 mg/kg/day, time 6.0 weeks
Mus musculus [9] = assay: Upregulation of cytochrome P450-4A10 enzyme expression in liver of HFD-induced C57BL/6J mouse model of NAFL administered intraperitoneally from week 7 to week 12 by immunoblotting analysis; assay type: functional; settings: dose 20-40 mg/kg/day, route ip, time 6.0 weeks, DDE = dose-dependent effect
Mus musculus [10] = assay: Reduction in hepatic steatosis in HFD-induced C57BL/6J mouse model of NAFL assessed as reduction in size of lipid droplets in hepatocytes at 20 to 40 mg/kg/day, ip administered from week 7 to week 12 by H&E staining analysis; assay type: functional, organism-based; settings: dose 20-40 mg/kg/day, time 6.0 weeks
Mus musculus [11] = assay: Anti-inflammatory activity against MCD-induced C57BL/6J mouse model of nonalcoholic steatohepatitis assessed as downregulation of IL1beta expression in liver at 20 to 40 mg/kg/day, ip administered from week 3 to week 4 by immunoblotting analysis; assay type: functional, organism-based; settings: dose 20-40 mg/kg/day, time 2.0 weeks
Mus musculus [12] = assay: Anti-inflammatory activity against MCD-induced C57BL/6J mouse model of nonalcoholic steatohepatitis assessed as attenuation of ICAM1 expression in liver at 20 to 40 mg/kg/day, ip administered from week 3 to week 4 by immunoblotting analysis; assay type: functional, organism-based; settings: dose 20-40 mg/kg/day, time 2.0 weeks
[13] = Toxicity in C57BL/6J mouse assessed as effect on serum AST/ALT ratio at 40 mg/kg, ip; assay type: organism-based; settings: in vivo
Mus musculus [14] = assay: Upregulation of Acox2 gene transcriptional level in HFD-induced C57BL/6J mouse model of NAFL at 20 to 40 mg/kg/day, ip administered from week 7 to week 12 by qRT-PCR analysis; assay type: functional, organism-based; settings: dose 20-40 mg/kg/day, time 6.0 weeks
Mus musculus [15] = assay: Upregulation of peroxisomal bifunctional enzyme expression in liver of HFD-induced C57BL/6J mouse model of NAFL administered intraperitoneally from week 7 to week 12 by immunoblotting analysis; assay type: functional; settings: dose 20-40 mg/kg/day, route ip, time 6.0 weeks, DDE = dose-dependent effect
Mus musculus [16] = assay: Upregulation of Cpt1b gene transcriptional level in HFD-induced C57BL/6J mouse model of NAFL at 20 to 40 mg/kg/day, ip administered from week 7 to week 12 by qRT-PCR analysis; assay type: functional, organism-based; settings: dose 20-40 mg/kg/day, time 6.0 weeks
Mus musculus [17] = assay: Upregulation of ACAA1 enzyme expression in liver of HFD-induced C57BL/6J mouse model of NAFL at 15 mg/kg/day, ip administered from week 7 to week 12 by immunoblotting analysis; assay type: functional, organism-based; settings: time 6.0 weeks
Mus musculus [18] = assay: Upregulation of cytochrome P450-4A10 enzyme expression in liver of HFD-induced C57BL/6J mouse model of NAFL at 15 mg/kg/day, ip administered from week 7 to week 12 by immunoblotting analysis; assay type: functional, organism-based; settings: time 6.0 weeks
Mus musculus [19] = assay: Upregulation of Cpt1c gene transcriptional level in HFD-induced C57BL/6J mouse model of NAFL at 20 to 40 mg/kg/day, ip administered from week 7 to week 12 by qRT-PCR analysis; assay type: functional, organism-based; settings: dose 20-40 mg/kg/day, time 6.0 weeks
Mus musculus [20] = assay: Anti-inflammatory activity against MCD-induced C57BL/6J mouse model of nonalcoholic steatohepatitis assessed as attenuation of VCAM1 expression in liver at 20 to 40 mg/kg/day, ip administered from week 3 to week 4 by immunoblotting analysis; assay type: functional, organism-based; settings: dose 20-40 mg/kg/day, time 2.0 weeks
[21] = Toxicity in C57BL/6J mouse assessed as effect on serum triglyceride level at 40 mg/kg, ip; assay type: organism-based; settings: in vivo
Mus musculus [22] = assay: Upregulation of peroxisomal bifunctional enzyme expression in liver of HFD-induced C57BL/6J mouse model of NAFL at 15 mg/kg/day, ip administered from week 7 to week 12 by immunoblotting analysis; assay type: functional, organism-based; settings: time 6.0 weeks
Mus musculus [23] = assay: Antifibrotic activity against MCD-induced C57BL/6J mouse model of liver fibrosis assessed as reduction in collagen I level in liver at 20 to 40 mg/kg, ip administered from week 3 to week 6 by sirius red staining based light microscopic analysis; assay type: functional, organism-based; settings: dose 20-40 mg/kg, time 4.0 weeks
Mus musculus [24] = assay: Reduction in hepatic steatosis in HFD-induced C57BL/6J mouse model of NAFL assessed as reduction in serum AST/ALT ratio at 20 to 40 mg/kg/day, ip administered from week 7 to week 12; assay type: functional, organism-based; settings: dose 20-40 mg/kg/day, time 6.0 weeks
Mus musculus [25] = assay: Upregulation of long-chain specific acyl-CoA dehydrogenase gene transcriptional level in HFD-induced C57BL/6J mouse model of NAFL at 20 to 40 mg/kg/day, ip administered from week 7 to week 12 by qRT-PCR analysis; assay type: functional, organism-based; settings: dose 20-40 mg/kg/day, time 6.0 weeks
[26] = Toxicity in C57BL/6J mouse assessed as effect on serum ApoE level at 40 mg/kg, ip; assay type: organism-based; settings: in vivo
Mus musculus [27] = assay: Upregulation of peroxisomal acyl-coenzyme A oxidase-2 enzyme expression in liver of HFD-induced C57BL/6J mouse model of NAFL at 15 mg/kg/day, ip administered from week 7 to week 12 by immunoblotting analysis; assay type: functional, organism-based; settings: time 6.0 weeks
Mus musculus [28] = assay: In vivo activation of PPARalpha/PGC1alpha pathway in HFD-induced C57BL/6J mouse model of NAFL assessed as increase in PPARalpha expression in liver administered intraperitoneally from week 7 to week 12 by immunoblotting analysis; assay type: functional, organism-based; settings: dose 20-40 mg/kg/day, route ip, time 6.0 weeks, DDE = dose-dependent effect

C[C@H]1CO[C@]2(C)Oc3cc(O)c4c(c3C[C@H]12)O[C@@]1(C)OC[C@H](C)[C@H]1C4
Activity (Mus musculus [1]): Active
Activity (Mus musculus [2]): Active
Activity (Mus musculus [3]): Active
Activity (Mus musculus [4]): Active
Activity (Mus musculus [5]): Active
Activity (Mus musculus [6]): Active
Activity (Mus musculus [7]): Active
Activity (Mus musculus [8]): Active
Activity (Mus musculus [9]): Dde
Activity (Mus musculus [10]): Active
Activity (Mus musculus [11]): Active
Activity (Mus musculus [12]): Active
Activity [13]: Non-Toxic
Activity (Mus musculus [14]): Active
Activity (Mus musculus [15]): Dde
Activity (Mus musculus [16]): Active
Activity (Mus musculus [17]): Active
Activity (Mus musculus [18]): Active
Activity (Mus musculus [19]): Active
Activity (Mus musculus [20]): Active
Activity [21]: Non-Toxic
Activity (Mus musculus [22]): Active
Activity (Mus musculus [23]): Active
Activity (Mus musculus [24]): Active
Activity (Mus musculus [25]): Active
Activity [26]: Non-Toxic
Activity (Mus musculus [27]): Active
Activity (Mus musculus [28]): Dde
